Where a name gives a salt, the structure may show the parent alone. Read-outs that look alike come from different tables or passages of the source. Where a SMILES comes first, the peptide text is derived from it. [ ]: non-standard residue; d: D form. Nle = CCCC[C@H](N)C(=O)O
Assays:
[1] = tested on: SARS-CoV-2 (USA_WA1/2020); assay: microbe, parasite or virus in culture; format: cell-based; conditions: for EC50: read-out: CPE EC50
[2] = tested on: Vero E6 cells; conditions: Vero E6 cells without virus; for CC50: read-out: Cytotox CC50
[3] = […], DMSO 0%, no-virus control 100%, hit confirmation
[4] = SARS-CoV-2 CPE assay, Vero E6 cells, confirmed anti-SARS-CoV-2 compounds
[5] = SARS-CoV-2 CPE assay, Vero E6 cells, efficacy
[6] = SARS-CoV-2 CPE assay, Vero E6 cells

Row | SMILES | CPE % Efficacy [1, 3] | EC50 [1] | % Cytotox ([2]; 72 h) | EC50 [1, 4] | CPE % Efficacy [1, 5] | % Cytotox ([2]; cytotoxicity counter-assay) | CC50 ([2]; cytotoxicity counter-assay) | CPE % Efficacy [1, 6] | EC50 [1, 6]
1 | CCC[C@@H](NC(=O)N1C(=O)C(CC)(CC)[C@@H]1Oc1ccc(C(=O)N2CCN(C)CC2)cc1)c1ccc2c(c1)OCO2 [DMP 777, reference compound] | 92.5% | 10 µM | <30% | – | – | – | – | – | –
2 | Cl.Fc1ccc2c(CCNCc3cccc(OCC(F)(F)C(F)F)c3)c[nH]c2c1 [Lu AE58054 hydrochloride, reference compound] | 97.2% | 10 µM | <30% | – | – | – | – | – | –
3 | Cl.Cl.Clc1ccccc1CNCC1CCC(CNCc2ccccc2Cl)CC1 (centres unmarked) [AY 9944 dihydrochloride] | – | – | – | 3.16 µM | 41.0% | 48.2% | 12.6 µM | – | –
4 | C[C@@H]1O[C@@H](O[C@H]2[C@H](OC(=O)[C@]34CCC(C)(C)C[C@H]3C3=CCC5[C@@]6(C)CC[C@H](O[C@@H]7O[C@H](CO[C@@H]8OC[C@H](O)[C@H](O)[C@H]8O)[C@@H](O)[C@H](O)[C@H]7O)C(C)(C)C6CC[C@@]5(C)[C@]3(C)C[C@H]4O)OC[C@@H](O)[C@@H]2O)[C@H](O)[C@H](O)[C@H]1O[C@@H]1OC[C@H](O)[C@H](O[C@@H]2OC[C@@H](O)[C@H](O)[C@H]2O)[C@H]1O (some centres unmarked) [NCGC00384864] | – | – | – | 0.6 µM | 46.4% | 58.6% | 1.91 µM | – | –
5 | CCC(C)C(=O)OC12C(OC(C)=O)C(C)C3(O)C(C=C(CO)CC4(O)C(=O)C(C)=CC43)C1C2(C)C (centres unmarked) [NCGC00380715] | – | – | – | 0.98 µM | 45.0% | 0.0% | – | – | –
6 | Cn1cc(-c2ccc(-c3cncc(Cl)c3N3CCC4(CCNC4=O)CC3)cc2)cn1 [CCT-251545] | – | – | – | – | – | 0.0% | – | 65.2% | 14.1 µM
7 | Cl.Cl.Fc1ccc(-c2nc(C3CCNCC3)sc2-c2ccnc(NC3CC3)n2)cc1 [DBM 1285 dihydrochloride] | – | – | – | – | – | 61.3% | 11.2 µM | 56.1% | 12.6 µM
8 | Cc1c(CCOc2ccc(C(=O)O)cc2)c2cc(Cl)ccc2n1C(c1ccccc1)c1ccccc1 [CDIBA] | – | – | – | – | – | 77.1% | 12.6 µM | 52.2% | 14.1 µM
9 | C[C@@H]1O[C@@H](O[C@@H]2[C@@H](O)[C@H](O[C@@H]3[C@@H](O)[C@@H](O)[C@H](O[C@H]4[C@H](OC(=O)[C@]56CCC(C)(C)C[C@H]5C5=CCC7[C@@]8(C)C[C@H](O)[C@H](O[C@@H]9O[C@@H](C)[C@H](O)[C@@H](O)[C@H]9O)[C@@](C)(CO)C8CC[C@@]7(C)[C@]5(C)C[C@H]6O)O[C@H](C)[C@H](O)[C@@H]4O)O[C@H]3C)OC[C@H]2O)[C@H](O)[C@H](O)[C@H]1O (some centres unmarked) [NCGC00385241] | – | – | – | 0.85 µM | 123.9% | 98.7% | 1.91 µM | – | –
10 | O=C(/C=C/c1ccc(Cl)cc1)N1CCC2(CC1)CN(Cc1ccc(Cl)c(Cl)c1)C(=O)O2 [GSK-682753A] | – | – | – | – | – | 38.6% | 12.6 µM | 67.7% | 11.2 µM
11 | CC(CN(C)C)CN1c2ccccc2Sc2ccc(C(F)(F)F)cc21 (centres unmarked) [Trifluomeprazine 2-butenedioate, reference compound] | 90.2% | 10 µM | <30% | – | – | – | – | – | –
12 | Cc1ncc(NC(=O)c2cccc(C(F)(F)F)c2)cc1-c1cnc(OC2CCOCC2)c(N2CCOCC2)c1 [RAF-709] | – | – | – | – | – | 56.6% | 8.91 µM | 58.4% | 14.1 µM
13 | COc1ccc(-c2cc(C(O)C3CCCCN3)c3ccccc3n2)cc1.Cl.Cl (centres unmarked) [NSC-23925] | – | – | – | 5.62 µM | 40.3% | 49.3% | 10 µM | – | –
14 | C/C=C(\C)C(=O)O[C@H]1CC2C(=C1C)[C@H]1OC(=O)[C@](C)(O)[C@]1(O)[C@H](OC(=O)CCC)C[C@@]2(C)OC(C)=O (some centres unmarked) [NCGC00169033] | – | – | – | 2.77 µM | 63.3% | 48.4% | 4.39 µM | – | –
15 | CC(CN(C)C)CN1c2ccccc2Sc2ccccc21.CC(CN(C)C)CN1c2ccccc2Sc2ccccc21.O=C(O)C(O)C(O)C(=O)O (centres unmarked) [Trimeprazine tartrate] | – | – | – | – | – | 0.0% | – | 49.5% | 12.6 µM
16 | COc1ccc2c(c1)CN(C(=O)CCN1CCC(Cc3ccccc3)CC1)CCS2 [JTV519 Hemifumarate, reference compound] | 85.7% | 5.5 µM | <30% | – | – | – | – | – | –
17 | COc1cc(N2CCN(C)CC2)ccc1Nc1ncc2c(n1)N(C)c1ccccc1C(=O)N2 [XMD8-87] | – | – | – | – | – | 32.0% | – | 88.0% | 11.2 µM
18 | CC1(C)CCC(C)(C)c2cc(C#Cc3ccc(C(=O)O)cc3)ccc21 [EC 23] | – | – | – | 3.98 µM | 110.5% | 74.0% | 12.6 µM | – | –
19 | CCc1cc(-c2n[nH]c(C)c2-c2ccc3c(c2)OCCO3)c(O)cc1O [CCT-018159] | – | – | – | – | – | 34.2% | – | 74.6% | 14.1 µM
20 | CN1CCCCC1Cn1cc(C(=O)c2cc([N+](=O)[O-])ccc2I)c2ccccc21 (centres unmarked) [AM1241, reference compound] | 97.6% | 10 µM | <30% | – | – | – | – | – | –
21 | Cl.Cl.O=S(=O)(c1cccc2ccccc12)n1ccc2ccc(N3CCN4CCCC4C3)cc21 (centres unmarked) [NPS ALX Compound 4a dihydrochloride] | – | – | – | – | – | 93.1% | 12.6 µM | 100.0% | 12.6 µM

Row | SMILES | CPE % Efficacy [1, 3] | EC50 [1] | % Cytotox ([2]; 72 h) | EC50 [1, 4] | CPE % Efficacy [1, 5] | % Cytotox ([2]; cytotoxicity counter-assay) | CC50 ([2]; cytotoxicity counter-assay) | CPE % Efficacy [1, 6] | EC50 [1, 6]
22 | COc1cccc(-n2c(=O)[nH]c3cc(Cl)n(-c4ccc(-c5cccc(OC)c5O)cc4)c3c2=O)c1 [GSK621] | – | – | – | 11.2 µM | 77.9% | 58.4% | – | – | –
23 | O=S(=O)(NCC1CC1)c1ccc(Nc2nccc(N3CCCc4cc(O)ccc43)n2)cc1 [Pyrintegrin] | – | – | – | 0.79 µM | 76.3% | 70.3% | 3.98 µM | – | –
24 | O[C@@H]1[C@@H](O)[C@@H](O)CO[C@H]1O [alpha-L-Arabinopyranose, reference compound] | 104.0% | 2.4 µM | <30% | – | – | – | – | – | –
25 | COc1cc2nc(N3CCCCC3)nc(NC3CCN(Cc4ccccc4)CC3)c2cc1OC [NCGC00185849] | – | – | – | 3.98 µM | 66.6% | 110.3% | 10 µM | – | –
26 | O=C(NCCCCN1CCN(c2cccc(Cl)c2Cl)CC1)c1cc2ccccc2s1 [FAUC-365] | – | – | – | 4.47 µM | 36.5% | 35.5% | 12.6 µM | – | –
27 | CCCC[C@@H](C=O)NC(=O)[C@H](CC(C)C)NC(=O)[C@H](CC(C)C)NC(C)=O [Calpain Inhibitor I, ALLN, reference compound] (Ac-Leu-Leu-[Nle]-aldehyde) | 111.1% | 2 µM | <30% | 0.0226 µM | 72.0% | 115.5% | 1.13 µM | – | –
28 | Cc1nc(Nc2cnn(C3CCNCC3)c2)nc2c1N(C)C(=O)c1cc3ccccc3cc1N2C [HTH-01-015] | – | – | – | 11.2 µM | 95.2% | 40.5% | 12.6 µM | – | –
29 | Cc1nc2ccc(Oc3ccc(F)cc3)cc2c(=O)n1C[C@H]1CCCN(C(C)C)C1 [YIL 781] | – | – | – | – | – | 0.0% | – | 53.5% | 11.2 µM
30 | NC(=O)c1ccc2nc(-c3ccc(Oc4ccc(Cl)cc4)cc3)[nH]c2c1 [BML-277] | – | – | – | – | 73.6% | 33.9% | – | – | –
31 | C/C(=N\NC(=S)N1CCC1)c1ccccn1 [NSC-319726] | – | – | – | 1.12 µM | 58.3% | 52.8% | 0.35 µM | – | –
32 | COc1ccc(C(C)(C)C)cc1CN[C@H]1C2CCN(CC2)[C@H]1C(c1ccccc1)c1ccccc1 [Maropitant] | – | – | – | 3.55 µM | 83.7% | 108.2% | – | – | –
33 | COc1ccc(NS(=O)(=O)c2sc3ccc(Cl)cc3c2C)cc1N1CCNCC1 [SB 271046 hydrochloride, reference compound] | 107.5% | 10 µM | <30% | – | – | – | – | – | –
34 | C[C@@H]1CN(CC(=O)N2CC(C)(C)c3ncc(Cc4ccc(F)cc4)cc32)[C@@H](CN2CCOC[C@H]2C)CN1 [AT-IAP] | – | – | – | – | – | 0.0% | – | 56.2% | –
35 | COc1cc(-c2cc(-c3ccc(N4CCNCC4)cc3)cnc2C)cc(OC)c1OC [LDN-214117] | – | – | – | – | – | 53.6% | 11.2 µM | 39.2% | 11.2 µM
36 | Cc1cc(CC(C)CC(C)(C)C)n(O)c(=O)c1.NCCO (centres unmarked) [Piroctone Olamine] | – | – | – | 4.47 µM | 61.2% | 46.6% | 1.78 µM | – | –
37 | O=C(NCc1ccccc1)[C@H](Cc1ccccc1)NC(=O)[C@H]1O[C@@H]1C(=O)NCCc1ccc(O)cc1 [CAA-0225, reference compound] | 99.3% | 0.2 µM | <30% | – | – | – | – | – | –
38 | c1ccc(-c2ccc(CNc3nc(-c4ccccn4)nnc3-c3ccccc3)cc2)cc1 [ML-228] | – | – | – | 0.63 µM | 69.4% | 74.8% | 0.56 µM | – | –
39 | CC(C)(C)c1ccc(CN2CCN(C(c3ccccc3)c3ccc(Cl)cc3)CC2)cc1.Cl.Cl (centres unmarked) [Buclizine HCl] | – | – | – | – | – | 0.0% | – | 86.2% | 14.1 µM
40 | CCC(C)C(=O)OC1CC(O)C23C4OCC5(C(O)CC2C1(C)C(O)O4)C3C(=O)CC1(C)C(c2ccoc2)CC2OC215 (centres unmarked) [NCGC00381227] | – | – | – | 3.91 µM | 82.9% | 53.1% | 7.8 µM | – | –
41 | C/C=C(\C)C(=O)O[C@H]1C=C(CO)C(=O)[C@H](OC(C)=O)[C@H]1C(C)C [NCGC00180769] | – | – | – | 3.55 µM | 30.1% | 103.1% | 10 µM | – | –
42 | CCC(C)CNCC(=O)N1CCc2sccc2C1COc1cccc(C)c1 (centres unmarked) [RU-SKI 43] | – | – | – | – | – | 21.3% | – | 72.7% | 14.1 µM

From publication PMC7942396, “Drug Repurposing Screen for Compounds Inhibiting the Cytopathic Effect of SARS-CoV-2” (Frontiers in Pharmacology, 2021)
